Measurements reported in US20240239774A1, “SOLUBLE ADENYLYL CYCLASE (SAC) INHIBITORS AND USES THEREOF” (Cornell University, priority 2021, published 2024).

System: wild type C57B1/6 male mice
Test: Imiquimod-induced type 17 skin inflammation, topical treatment
Assay type: in vivo, mouse
Description: Wild type C57B1/6 male mice 8-10 week old were purchased from Jackson labs. A 7 mm diameter circle was shaved and treated with Nair on the flank. Baseline ear thickness was measured. For 5 days, mice received daily treatment of 30 mg of 5% imiquimod cream (Taro) to each ear and to the 7 mm area on the flank. Ear thickness was recorded on days 3 and 5 to ensure peak inflammation had occurred. Mice were then randomized into three cohorts: vehicle, LRE1, and Clobetasol. […] Treatment with imiquimod was continued during this period as above. Ear thickness was recorded every day before the first dose of drug. On day 11, all mice were euthanized. A 7 mm punch biopsy was collected from the flank and both ears were removed. Skin was stored in RNAlater (Sigma) for qPCR or 10% formalin for immunohistochemistry.
For tissue, RNA was isolated according to specifications of the RNA easy plus universal mini kit (Qiagen). Tissue was homogenized using stainless steel beads in a bead beater. For frozen cell pellets, RNA was isolated according to specifications of the RNA easy plus mini kit (Qiagen). Samples were homogenized using Qiashredder columns (Qiagen). RNA quality control was performed using a nanodrop spectrophotometer. cDNA was made using the high-capacity rna-to-cdna kit (thermo fischer). The applied biosystems power SYBR green PCR master mix was used for qPCR. 40 cycles with annealing temperatures of 60 degrees celsius and a melting curve were performed using the QuantStudio 6 real-time PCR instrument (thermo fischer). Delta delta CT analysis was performed to determine relative transcription amongst samples normalized to GAPDH.

## Cc1c(Cc2ccccc2)c(-c2cc(Cl)nc(N)n2)nn1C [Example 1, 4-(4-benzyl-1,5-dimethyl-pyrazol-3-yl)-6-chloro-pyrimidin-2-amine]
Applied at the same time as imiquimod, N=5
  inflammation in the ears measured by ear calipers: reduce the inflammation
Imiquimod 6 days, then continued imiquimod plus topical twice a day: LRE1 3%, Example 1 […], Clobetasol 0.05%
  skin inflammation (ear thickness): significant reduction in skin inflammation
Imiquimod for one week, then imiquimod plus compound, over 4 days, N=5
  reduction in inflammation: 50%
